Measurements reported in BindingDB's records for patent US20250074910 (Hitgen, 2025).
pIC50: −log10 of the molar value.

Target: T1, Menin (Homo sapiens, UniProt O00255)
T1 sequence (O00255 whole entry): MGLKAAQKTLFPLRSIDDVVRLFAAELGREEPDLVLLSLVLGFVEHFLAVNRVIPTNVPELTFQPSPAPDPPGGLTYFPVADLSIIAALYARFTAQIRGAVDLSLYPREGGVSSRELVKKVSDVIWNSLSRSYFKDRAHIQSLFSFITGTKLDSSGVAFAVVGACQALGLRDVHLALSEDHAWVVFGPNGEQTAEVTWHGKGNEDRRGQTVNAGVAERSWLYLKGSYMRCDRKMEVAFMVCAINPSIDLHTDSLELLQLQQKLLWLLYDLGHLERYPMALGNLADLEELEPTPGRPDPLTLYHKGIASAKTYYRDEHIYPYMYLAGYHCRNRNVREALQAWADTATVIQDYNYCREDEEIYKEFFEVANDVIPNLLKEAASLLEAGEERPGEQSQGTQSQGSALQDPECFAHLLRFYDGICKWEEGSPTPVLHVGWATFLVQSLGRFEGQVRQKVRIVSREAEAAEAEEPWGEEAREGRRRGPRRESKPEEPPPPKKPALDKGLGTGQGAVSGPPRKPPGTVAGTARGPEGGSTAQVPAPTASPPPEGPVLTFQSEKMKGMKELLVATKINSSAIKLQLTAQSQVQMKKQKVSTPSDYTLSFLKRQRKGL
Assay: Menin-MLL Interaction Inhibitory Activity Assay
Experimental: The inhibition of Menin/MLL-4-43 peptide interaction by small molecule inhibitors was quantitatively detected by fluorescence polarization competition assay. The experiment was performed in a 384-well plate (Corning, Cat #3575) using a reaction buffer consisting of 50 mM Tris, pH 7.5, 50 mM NaCl, and 1 mM DTT. A 40 μL reaction system included 10 μL of 8 nM Menin recombinant protein and 10 μL of the test compound at different concentrations. The compound was pre-incubated with Menin protein for 15 min, and then 20 μL of 10 nM FITC-MLL4-43-peptide was added. After incubation on a shaker at 25° C. for 60 min, the fluorescence polarization signal (FP 485 520 520) was read using BMG PHERAStar detection. The experimental data was analyzed and processed by GraphPad Prism 6 software to obtain the IC50 value.

pIC50	SMILES
7.44	CCN(C(=O)c1cc(F)ccc1Oc1cncnc1N1CC2(CCN(C[C@H]3CC[C@@]4(CCC(=O)N4)CC3)CC2)C1)C(C)C [US20250074910, Example 1]
8.08	CC(C)N(C(=O)c1cc(F)ccc1Oc1nncnc1N1CC2(CCN(C[C@H]3CC[C@]4(CC3)CC(CO)(CO)C(=O)N4)CC2)C1)C(C)C [US20250074910, Example 63]
